Test [1] relates to Bel7404 cells. The test can be described thus: Colony formation assay. In kind it is cell-based. To be noted: 0–20 μM, 24 h treatment, two weeks culture. Here is the method:
(§1) Cells (300/well) were seeded in 24-well plates and incubated overnight in a humidified atmosphere of 5% CO2 at 37 °C. Incremental concentrations of E5 (0–20 μM) were then added, and the medium was replaced with fresh culture medium containing 10% FBS after 24 h. After two weeks of culture, colonies were fixed with methanol, stained with 1% crystal violet and colonies containing more than 50 cells were counted.

For test [2], the system named is HepG2 cells. The experiment in a line: Colony formation assay. In kind it is cell-based. To be noted: 0–20 μM, 24 h treatment, two weeks culture. Here is the method:
as §1

Test [3] relates to Bel7404 cells. The test can be described thus: MTT cell viability assay. The test is classed as cell-based. The settings on record: Homo sapiens. Here is the method:
(§2) To reconfirm the biological activity, we chose the most sensitive cell line Bel7404 from cellular assay and the widely used and the most characterized cell line HepG2 to examine the effects of E5 on cell proliferation by MTT assay. […] Given that cell cycle arrest plays a significant role in inhibiting cancer cell growth, we subsequently examined the effects of E5 on cell cycle distribution of Bel7404 and HepG2 cells.
(§3) Cell viability was measured by methyl thiazolyl tetrazolium (MTT) assay. Cells were seeded in 96-well plate at a density of 1 × 10^4 cells/well. After overnight incubation, solution of E5 in DMSO with incremental concentrations (0–30 μM) were added to the cells and further incubated for 3 days. During this period, three wells were selected from each group of cells every day for the MTT (50 μg/well) assay. After the cells had been incubated at 37 °C for 4 h, the reaction was stopped by adding 150 μL/well of DMSO, and incubating for 10 min. The absorbance was measured at a wavelength of 490 nm by a Microplate Reader (BioTek, USA).
(Tetrazolium assays rely on reduction of a dye to a coloured formazan, in cell work by metabolically active cells.)

For test [4], the system named is HepG2 cells. The experiment in a line: MTT cell viability assay. In kind it is cell-based. The settings on record: Homo sapiens. How it is done:
as §2, §3

Test [5] addresses PDGFRβ (Homo sapiens, UniProt P09619). The experiment in a line: PDGFR kinase assay, Caliper microfluidic mobility shift. The test is classed as biochemical. The settings on record: averages of two separate experiments.
For test [6], the target named is PDGFRα (Homo sapiens, UniProt P16234). Described as above. In kind it is biochemical.
In test [7] the test system is SNU368. The experiment in a line: CellTiter-Glo luminescent cell viability assay. In kind it is cell-based. To be noted: 120 h incubation, read-out: Anti-proliferative activity IC50 SNU368. The procedure, abridged: (§4)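 HCC cells, 4000/well, o/n attach; cpd (DMSO) dilution series, 120 h. CellTiter-Glo luminescence, % of untreated. IC50 by nonlinear regression, log conc-response; mean of 2 expts.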
(Cellular ATP, detected with luciferase, serves as a proxy for viable cell number.)

Test [8] concerns QGY-7703. The experiment in a line: CellTiter-Glo luminescent cell viability assay. In kind it is cell-based. The settings on record: Homo sapiens, QGY-7703, 120 h incubation, read-out: Anti-proliferative activity IC50 QGY-7703. In outline:
as §4

Test [9] relates to MHCC97-L. The experiment in a line: CellTiter-Glo luminescent cell viability assay. The test is classed as cell-based. The settings on record: MHCC97L, 120 h incubation, read-out: Anti-proliferative activity IC50 MHCC97-L. The procedure, abridged:
as §4

Test [10] concerns SMMC-7721. The test can be described thus: CellTiter-Glo luminescent cell viability assay. In kind it is cell-based. The settings on record: Homo sapiens, SMMC-7721, 120 h incubation, read-out: Anti-proliferative activity IC50 SMMC-7721. In outline: as §4
The subject of test [11] is BEL7404. The test can be described thus: CellTiter-Glo luminescent cell viability assay. The test is classed as cell-based. To be noted: Homo sapiens, BEL-7404, 120 h incubation, read-out: Anti-proliferative activity IC50 BEL7404. In outline:
as §4

The test system of test [12] is Hep3B. The test can be described thus: CellTiter-Glo luminescent cell viability assay. In kind it is cell-based. To be noted: Homo sapiens, Hep3B, 120 h incubation, read-out: Anti-proliferative activity IC50 Hep3B. The procedure, abridged:
as §4

Each structure is given as a SMILES string.

Chain of PDGFRβ (P09619 33-1106): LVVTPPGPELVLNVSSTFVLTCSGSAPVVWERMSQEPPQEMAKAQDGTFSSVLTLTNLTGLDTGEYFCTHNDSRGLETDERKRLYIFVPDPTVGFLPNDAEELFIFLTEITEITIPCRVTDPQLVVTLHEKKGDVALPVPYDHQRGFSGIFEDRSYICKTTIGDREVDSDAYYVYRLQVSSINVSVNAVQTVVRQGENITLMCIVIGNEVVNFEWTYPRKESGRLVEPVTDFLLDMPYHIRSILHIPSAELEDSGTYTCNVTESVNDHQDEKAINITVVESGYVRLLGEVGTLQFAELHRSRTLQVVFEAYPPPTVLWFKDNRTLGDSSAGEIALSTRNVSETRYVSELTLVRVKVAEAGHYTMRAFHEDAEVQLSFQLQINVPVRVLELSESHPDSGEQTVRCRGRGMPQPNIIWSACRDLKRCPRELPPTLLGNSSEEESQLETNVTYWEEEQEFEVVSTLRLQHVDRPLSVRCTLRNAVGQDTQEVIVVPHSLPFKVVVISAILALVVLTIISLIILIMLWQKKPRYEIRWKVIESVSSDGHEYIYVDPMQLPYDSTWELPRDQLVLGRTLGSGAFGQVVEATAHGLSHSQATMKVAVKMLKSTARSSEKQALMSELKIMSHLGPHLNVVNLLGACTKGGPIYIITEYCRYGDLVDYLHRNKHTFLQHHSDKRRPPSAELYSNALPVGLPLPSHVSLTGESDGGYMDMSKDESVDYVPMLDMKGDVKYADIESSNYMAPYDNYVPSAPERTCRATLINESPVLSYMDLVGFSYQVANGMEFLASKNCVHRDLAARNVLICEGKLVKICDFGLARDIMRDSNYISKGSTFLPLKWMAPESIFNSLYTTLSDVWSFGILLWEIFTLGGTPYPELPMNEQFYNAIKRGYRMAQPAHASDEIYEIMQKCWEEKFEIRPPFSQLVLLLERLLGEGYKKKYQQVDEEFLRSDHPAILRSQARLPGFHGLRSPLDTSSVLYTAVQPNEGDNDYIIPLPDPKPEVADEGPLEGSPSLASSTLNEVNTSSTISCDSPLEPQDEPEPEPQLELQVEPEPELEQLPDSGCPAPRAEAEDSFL
Chain of PDGFRα (P16234 24-1089): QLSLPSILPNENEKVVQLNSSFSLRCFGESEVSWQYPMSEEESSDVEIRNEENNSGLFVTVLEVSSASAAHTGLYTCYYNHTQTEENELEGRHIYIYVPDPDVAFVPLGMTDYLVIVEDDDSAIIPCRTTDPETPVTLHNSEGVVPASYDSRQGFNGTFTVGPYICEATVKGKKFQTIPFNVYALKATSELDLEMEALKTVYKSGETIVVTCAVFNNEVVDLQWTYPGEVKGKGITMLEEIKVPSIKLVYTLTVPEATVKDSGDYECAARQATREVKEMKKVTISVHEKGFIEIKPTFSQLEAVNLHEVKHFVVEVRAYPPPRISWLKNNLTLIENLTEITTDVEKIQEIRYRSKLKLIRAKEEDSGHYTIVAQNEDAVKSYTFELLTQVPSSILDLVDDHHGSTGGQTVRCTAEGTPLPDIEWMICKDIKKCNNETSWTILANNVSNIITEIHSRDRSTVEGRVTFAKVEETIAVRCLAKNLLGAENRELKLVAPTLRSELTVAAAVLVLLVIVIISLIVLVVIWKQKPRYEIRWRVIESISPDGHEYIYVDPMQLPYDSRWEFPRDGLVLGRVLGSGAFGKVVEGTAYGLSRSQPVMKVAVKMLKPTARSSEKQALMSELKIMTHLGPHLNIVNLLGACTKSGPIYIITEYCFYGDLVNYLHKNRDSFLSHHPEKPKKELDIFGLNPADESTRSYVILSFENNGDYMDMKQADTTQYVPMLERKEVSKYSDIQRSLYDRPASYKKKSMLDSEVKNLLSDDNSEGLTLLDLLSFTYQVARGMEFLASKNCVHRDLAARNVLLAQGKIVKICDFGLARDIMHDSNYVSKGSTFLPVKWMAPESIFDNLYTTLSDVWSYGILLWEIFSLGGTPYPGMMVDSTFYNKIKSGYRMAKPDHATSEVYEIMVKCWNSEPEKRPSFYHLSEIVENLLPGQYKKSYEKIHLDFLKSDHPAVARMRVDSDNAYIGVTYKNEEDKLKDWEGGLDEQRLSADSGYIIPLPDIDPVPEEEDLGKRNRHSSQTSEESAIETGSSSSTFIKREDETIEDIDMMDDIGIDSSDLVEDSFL

The IC50 is the concentration at which inhibition is half-maximal. The inhibition is the relative decrease from the control value, in per cent. Regarding `Cc1ccc(NC(=O)c2ccc(CN3CCN(C)CC3)cc2)cc1Oc1nccc(-c2cc3ccccc3o2)n1` [E5, N-(3-((4-(benzofuran-2-yl)pyrimidin-2-yl)oxy)-4-methylphenyl)-4-((4-methylpiperazin-1-yl)methyl)benzamide], the Effect on clonogenicity entry in test [1] and in test [2] was “significantly inhibited the clonogenicity” each time. The IC50 came out at 18.2 ± 2.38 µM in [3] (BEL-7404, 24 h); 9.68 ± 1.46 µM in test [3] (BEL-7404, 48 h); 6.62 ± 0.15 µM in [3] (BEL-7404, 72 h); 8.49 ± 0.82 µM in [4] (HepG2, 24 h, 24 h); 5.44 ± 0.23 µM in test [4] (HepG2, 48 h, 48 h); 4.72 ± 0.96 µM in test [4] (HepG2, 72 h, 72 h). Besides, the IC50 was determined as 0.93 µM in [5]; 0.4 µM in test [6] (averages of two separate experiments); 8.9 µM in test [7]; 15.1 µM in test [8]; 10 µM in test [9]; 1 µM in test [10]. In addition, the IC50 in test [11] stood at 0.8 µM; in test [12], 2.6 µM. Besides, in test [5], the “IC50 PDGFRβ” value is listed as “moderate inhibitory activity”. Besides, the inhibition at 1 µM in test [5] (compound at 1 µM, read-out: Inhibition effect (%) PDGFRβ) was greater than 50%; in test [6] (compound at 1 µM, averages of two separate experiments, read-out: Inhibition effect (%) PDGFRα) it was greater than 85%. Also, in test [6] (IC50 (PDGFRβ)/ IC50 (PDGFRα)), the Selectivity index is given as 2.32.
